Key:
Rattus norvegicus [1] = assay: Distribution of the radioiodinated compound expressed as percent dose per gram, in thyroid of unfasted rats after 30 mins of intravenous administration (11.5 uCi/animal); value ranges from 5.03-36.88 % dose/g; format: ADME, organism-based, Thyroid gland; conditions: in vivo, 0.5 h
Rattus norvegicus [2] = assay: Distribution of the radioiodinated compound expressed as percent dose per gram, in kidney of unfasted rats after 5 mins of intravenous administration (11.5 uCi/animal); value ranges from 2.12-3.14 % dose/g; format: ADME, organism-based; conditions: in vivo
Rattus norvegicus [3] = assay: Distribution of the radioiodinated compound expressed as percent dose per gram, in liver of unfasted rats after 5 mins of intravenous administration (11.5 uCi/animal); value ranges from 1.64-2.38 % dose/g; format: ADME, organism-based; conditions: in vivo
Rattus norvegicus [4] = assay: Distribution of the radioiodinated compound expressed as percent dose per gram, in thyroid of unfasted rats after 5 mins of intravenous administration (11.5 uCi/animal); value ranges from 7.87-16.51 % dose/g; format: ADME, organism-based, Thyroid gland; conditions: in vivo
Rattus norvegicus [5] = assay: Distribution of the radioiodinated compound expressed as percent dose per gram, in brain of unfasted rats after 5 mins of intravenous administration (11.5 uCi/animal); value ranges from 2.57-3.59 % dose/g; format: ADME, organism-based; conditions: in vivo
Rattus norvegicus [6] = assay: Distribution of the radioiodinated compound expressed as percent dose per gram, in liver of unfasted rats after 30 mins of intravenous administration (11.5 uCi/animal); value ranges from 0.08-0.90 % dose/g; format: ADME, organism-based; conditions: in vivo, 0.5 h
Rattus norvegicus [7] = assay: Distribution of the radioiodinated compound expressed as percent dose per organ, in thyroid of unfasted rats after 60 mins of intravenous administration (11.5 uCi/animal); value ranges from 0.99-1.40 % dose/g; format: ADME, organism-based, Thyroid gland; conditions: in vivo, 1 h
Rattus norvegicus [8] = assay: Distribution of the radioiodinated compound expressed as percent dose per organ, in thyroid of unfasted rats after 5 mins of intravenous administration (11.5 uCi/animal); value ranges from 0.08-0.17 % dose/g; format: ADME, organism-based, Thyroid gland; conditions: in vivo
Rattus norvegicus [9] = assay: Distribution of the radioiodinated compound expressed as percent dose per gram, in heart of unfasted rats after 5 mins of intravenous administration (11.5 uCi/animal); value ranges from 0.85-1.13 % dose/g; format: ADME, organism-based; conditions: in vivo
Rattus norvegicus [10] = assay: Distribution of the radioiodinated compound expressed as percent dose per organ, in thyroid of unfasted rats after 30 mins of intravenous administration (11.5 uCi/animal); value ranges from 0.05-0.38 % dose/g; format: ADME, organism-based, Thyroid gland; conditions: in vivo, 0.5 h
Rattus norvegicus [11] = assay: Distribution of the radioiodinated compound expressed as percent dose per gram, in liver of unfasted rats after 60 mins of intravenous administration (11.5 uCi/animal); value ranges from 0.61-0.81 % dose/g; format: ADME, organism-based; conditions: in vivo, 1 h
Rattus norvegicus [12] = organism: Rattus norvegicus; assay: Specific activity of the radioiodinated compound was determined in rats; format: functional
Rattus norvegicus [13] = assay: Distribution of the radioiodinated compound expressed as percent dose per gram, in lungs of unfasted rats after 60 mins of intravenous administration (11.5 uCi/animal); value ranges from 1.87-2.12 % dose/g; format: ADME, organism-based, Lung; conditions: in vivo, 1 h
Rattus norvegicus [14] = assay: Distribution of the radioiodinated compound expressed as percent dose per gram, in blood of unfasted rats after 60 mins of intravenous administration (11.5 uCi/animal); value ranges from % dose/g; format: ADME, organism-based; conditions: in vivo, 1 h
Rattus norvegicus [15] = assay: Distribution of the radioiodinated compound expressed as percent dose per gram, in heart of unfasted rats after 30 mins of intravenous administration (11.5 uCi/animal); value ranges from 0.06-0.53 % dose/g; format: ADME, organism-based; conditions: in vivo, 0.5 h
Rattus norvegicus [16] = assay: Distribution of the radioiodinated compound expressed as percent dose per gram, in kidney of unfasted rats after 60 mins of intravenous administration (11.5 uCi/animal); value ranges from 0.74-0.85 % dose/g; format: ADME, organism-based; conditions: in vivo, 1 h
Rattus norvegicus [17] = assay: Distribution of the radioiodinated compound expressed as percent dose per gram, in lungs of unfasted rats after 30 mins of intravenous administration (11.5 uCi/animal); value ranges from 0.51-3.71 % dose/g; format: ADME, organism-based, Lung; conditions: in vivo, 0.5 h
Rattus norvegicus [18] = assay: Distribution of the radioiodinated compound expressed as percent dose per gram, in blood of unfasted rats after 5 mins of intravenous administration (11.5 uCi/animal); value ranges from 0.28-0.37% dose/g; format: ADME, organism-based; conditions: in vivo
Rattus norvegicus [19] = assay: Distribution of the radioiodinated compound expressed as percent dose per gram, in heart of unfasted rats after 60 mins of intravenous administration (11.5 uCi/animal); value ranges from 0.33-0.42 % dose/g; format: ADME, organism-based; conditions: in vivo, 1 h
Rattus norvegicus [20] = assay: Distribution of the radioiodinated compound expressed as percent dose per gram, in brain of unfasted rats after 30 mins of intravenous administration (11.5 uCi/animal); value ranges from 0.16-1.76 % dose/g; format: ADME, organism-based; conditions: in vivo, 0.5 h
Rattus norvegicus [21] = assay: Distribution of the radioiodinated compound expressed as percent dose per gram, in kidney of unfasted rats after 30 mins of intravenous administration (11.5 uCi/animal); value ranges from 0.15-1.43 % dose/g; format: ADME, organism-based; conditions: in vivo, 0.5 h
Rattus norvegicus [22] = assay: Distribution of the radioiodinated compound expressed as percent dose per gram, in lungs of unfasted rats after 5 mins of intravenous administration (11.5 uCi/animal); value ranges from 5.92-8.51% dose/g; format: ADME, organism-based, Lung; conditions: in vivo
Rattus norvegicus [23] = assay: Distribution of the radioiodinated compound expressed as percent dose per gram, in brain of unfasted rats after 60 mins of intravenous administration (11.5 uCi/animal); value ranges from 0.81-1.08 % dose/g; format: ADME, organism-based; conditions: in vivo, 1 h
Rattus norvegicus [24] = assay: Distribution of the radioiodinated compound expressed as percent dose per gram, in thyroid of unfasted rats after 60 mins of intravenous administration (11.5 uCi/animal); value ranges from 31.90-39.98 % dose/g; format: ADME, organism-based, Thyroid gland; conditions: in vivo, 1 h
Rattus norvegicus [25] = assay: Distribution of the radioiodinated compound expressed as percent dose per gram, in blood of unfasted rats after 30 mins of intravenous administration (11.5 uCi/animal); value ranges from 0.06-0.63 % dose/g; format: ADME, organism-based; conditions: in vivo, 0.5 h

## CC(C)NC(C)Cc1ccc(I)s1 (racemic)
Rattus norvegicus [1]
  Distribution: 26.26 % dose g-1
Rattus norvegicus [2]
  Distribution: 2.72 % dose g-1
Rattus norvegicus [3]
  Distribution: 2.06 % dose g-1
Rattus norvegicus [4]
  Distribution: 12.51 % dose g-1
Rattus norvegicus [5]
  Distribution: 3.18 % dose g-1
Rattus norvegicus [6]
  Distribution: 0.71 % dose g-1
Rattus norvegicus [7]
  Distribution: 1.24 % dose organ-1
Rattus norvegicus [8]
  Distribution: 0.13 % dose organ-1
Rattus norvegicus [9]
  Distribution: 0.94 % dose g-1
Rattus norvegicus [10]
  Distribution: 0.28 % dose organ-1
Rattus norvegicus [11]
  Distribution: 0.07 % dose g-1
Rattus norvegicus [12]
  Activity: 40 mCi animal-1
Rattus norvegicus [13]
  Distribution: 1.97 % dose g-1
Rattus norvegicus [14]
  Distribution: 0.6 % dose g-1
Rattus norvegicus [15]
  Distribution: 0.42 % dose g-1
Rattus norvegicus [16]
  Distribution: 0.79 % dose g-1
Rattus norvegicus [17]
  Distribution: 2.76 % dose g-1
Rattus norvegicus [18]
  Distribution: 0.31 % dose g-1
Rattus norvegicus [19]
  Distribution: 0.37 % dose g-1
Rattus norvegicus [20]
  Distribution: 1.37 % dose g-1
Rattus norvegicus [21]
  Distribution: 1.04 % dose g-1
Rattus norvegicus [22]
  Distribution: 7.01 % dose g-1
Rattus norvegicus [23]
  Distribution: 0.95 % dose g-1
Rattus norvegicus [24]
  Distribution: 36.45 % dose g-1
Rattus norvegicus [25]
  Distribution: 0.49 % dose g-1
